Measurements reported in paper PMC9120017, “Inhibition mechanism of the chloride channel TMEM16A by the pore blocker 1PBC” (Nature Communications, 2022).
Where two headings read alike, the source gives them in different places.

Target: T1, mouse TMEM16A mutant V543A (Mus musculus, UniProt Q8BHY3, V543A)
T1 construct: expressed in transfected cells; host or cells: HEK293T
T1 sequence (Q8BHY3 1-960 V543A): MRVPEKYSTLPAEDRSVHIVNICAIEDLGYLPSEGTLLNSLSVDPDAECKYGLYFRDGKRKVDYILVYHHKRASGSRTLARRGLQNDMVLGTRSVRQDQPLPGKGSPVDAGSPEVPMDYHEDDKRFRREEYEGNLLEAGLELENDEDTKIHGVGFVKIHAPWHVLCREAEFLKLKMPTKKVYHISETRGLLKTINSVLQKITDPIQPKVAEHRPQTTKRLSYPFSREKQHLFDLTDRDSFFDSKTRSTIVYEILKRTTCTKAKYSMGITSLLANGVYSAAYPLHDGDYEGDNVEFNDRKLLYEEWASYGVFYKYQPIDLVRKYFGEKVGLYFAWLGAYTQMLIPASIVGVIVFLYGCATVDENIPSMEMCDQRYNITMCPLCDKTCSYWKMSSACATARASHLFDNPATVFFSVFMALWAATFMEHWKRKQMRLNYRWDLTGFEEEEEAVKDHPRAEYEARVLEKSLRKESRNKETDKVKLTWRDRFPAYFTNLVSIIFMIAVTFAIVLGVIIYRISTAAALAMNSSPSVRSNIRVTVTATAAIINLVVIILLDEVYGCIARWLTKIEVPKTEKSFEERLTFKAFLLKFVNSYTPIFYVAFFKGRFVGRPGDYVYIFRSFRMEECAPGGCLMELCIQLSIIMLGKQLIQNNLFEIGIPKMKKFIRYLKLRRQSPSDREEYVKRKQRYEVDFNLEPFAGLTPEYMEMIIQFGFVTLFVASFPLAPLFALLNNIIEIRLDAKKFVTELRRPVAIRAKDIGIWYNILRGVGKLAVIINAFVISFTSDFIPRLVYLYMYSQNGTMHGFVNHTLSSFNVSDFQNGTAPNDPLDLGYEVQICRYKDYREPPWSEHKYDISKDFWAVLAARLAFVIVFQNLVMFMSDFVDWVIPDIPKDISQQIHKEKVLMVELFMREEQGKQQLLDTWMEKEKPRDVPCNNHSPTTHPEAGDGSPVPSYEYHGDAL
Assay: Inside-out patch recording of 1PBC block, mutant V543A
Assay type: cell-based
Settings: for remaining activity at 30 µM: 1PBC 30; for remaining activity at 30 µM / remaining activity at 100 µM: read-out: fraction of unblocked current; for remaining activity at 100 µM: 1PBC 100
Procedure: HEK293T cells (ATCC CRL-1573) were maintained in Dulbecco’s modified Eagle’s medium (DMEM; Sigma-Aldrich) supplemented with 10 U ml^−1 penicillin, 0.1 mg ml^−1 streptomycin (Sigma-Aldrich), 2 mM L-glutamine (Sigma-Aldrich), and 10% FBS (Sigma-Aldrich) in a humidified atmosphere containing 5% CO2 at 37 °C. HEK293S GnTI^− cells (ATCC CRL-3022) were maintained in HyClone HyCell TransFx-H medium (GE Healthcare) supplemented with 10 U ml^−1 penicillin, 0.1 mg ml^−1 streptomycin, 4 mM L-glutamine, 0.15% poloxamer 188 (Sigma-Aldrich), and 1% FBS in an atmosphere containing 5% CO2 at 185 rpm at 37 °C. The ac splice variant of mouse TMEM16A (UniProt ID: Q8BHY3), mouse TMEM16B (UniProt ID: Q8CFW1), or mouse TMEM16F (UniProt ID: Q6P9J9) bearing a 3C cleavage site, a Venus YFP, a Myc tag, and a Streptavidin-binding peptide (SBP) downstream of the open reading frame in a modified pcDNA3.1 vector (Invitrogen) were used as described previously[21],[31]. Mutations were introduced using a modified QuikChange method[58] and were verified by sequencing.
HEK293T cells were transfected with 3–4 μg DNA per 6 cm Petri dish using the calcium phosphate co-precipitation method and were used within 24–96 h after transfection. Recordings were performed on inside-out patches excised from HEK293T cells expressing the construct of interest. Patch pipettes were pulled from borosilicate glass capillaries (O.D. 1.5 mm, I.D. 0.86 mm, Sutter Instrument) and were fire-polished with a microforge (Narishige) before use. Pipette resistance was typically 3–8 MΩ when filled with the recording solutions detailed below. Seal resistance was typically 4 GΩ or higher. Voltage-clamp recordings were made using Axopatch 200B, Digidata 1550, and Clampex 10.7 (Molecular Devices). Analog signals were filtered with the in-built 4-pole Bessel filter at 10 kHz and were digitized at 20 kHz. Solution exchange was achieved using a gravity-fed system through a theta glass pipette mounted on an ultra-fast piezo-driven stepper (Siskiyou). […] All recordings were performed at 20 °C.
A symmetrical ionic condition was used throughout. Stock solution with Ca^2+-EGTA contained 150 mM NaCl, 5.99 mM Ca(OH)2, 5 mM EGTA, and 10 mM HEPES at pH 7.40. Stock solution with EGTA contained 150 mM NaCl, 5 mM EGTA, and 10 mM HEPES at pH 7.40. Free Ca^2+ concentrations were adjusted by mixing the stock solutions at the required ratios calculated using the WEBMAXC program (http://web.stanford.edu/~cpatton/webmaxcS.htm). Patch pipettes were filled with the stock solution with Ca^2+-EGTA, which has a free Ca^2+ concentration of 1 mM. 1PBC (ChemBridge) stock was reconstituted in anhydrous DMSO (Sigma-Aldrich) at 100 mM and stored at −20 °C. Working solutions with 1PBC were prepared by serial dilution. Unless otherwise stated, experiments were performed at a saturating Ca^2+ concentration as shown in Supplementary Table 1 and the primary data were corrected for current rundown as described previously[21],[25].
Concentration-response relations, obtained from the ratio of the I-V plots before and after the application of the blocker, were fitted to the Hill equation,1 I/Imax=1/1+IC50/[blocker]^h where I/Imax is the normalized current responses, IC50 defines the concentration at which inhibition is at its half-maximum, and h is the Hill coefficient.

remaining activity at 30 µM (-60 mV): 39.5% | remaining activity at 30 µM (-80 mV): 43.8% | remaining activity at 30 µM (-100 mV): 47.1% | remaining activity at 30 µM (-120 mV): 51.5% | remaining activity at 30 µM (-140 mV): 54.7% | remaining activity at 100 µM (0 mV): 9.46% | remaining activity at 100 µM (20 mV): 7.3% | remaining activity at 100 µM (40 mV): 6.78% | remaining activity at 100 µM (60 mV): 6.85% | remaining activity at 100 µM (80 mV): 6.35% | remaining activity at 100 µM (100 mV): 6.17% | remaining activity at 100 µM (120 mV): 6.44% | remaining activity at 100 µM (140 mV): 6.48% | remaining activity at 100 µM (-20 mV): 11.6% | remaining activity at 100 µM (-40 mV): 13.7% | remaining activity at 100 µM (-60 mV): 16% | remaining activity at 100 µM (-80 mV): 18.7% | remaining activity at 100 µM (-100 mV): 21.8% | remaining activity at 100 µM (-120 mV): 25% | remaining activity at 100 µM (-140 mV): 27.8% | IC50 (20 mV, 15 µM Ca2+): 9.55 µM | IC50 (40 mV, 15 µM Ca2+): 8.65 µM | IC50 (60 mV, 15 µM Ca2+): 8.16 µM | log-fold IC50 (change of mutant vs WT) (80 mV): 0.6263 | IC50 (80 mV, 15 µM Ca2+): 8.02 µM | IC50 (100 mV, 15 µM Ca2+): 8.37 µM | IC50 (120 mV, 15 µM Ca2+): 8.93 µM | IC50 (140 mV, 15 µM Ca2+): 9.55 µM | IC50 (-20 mV, 15 µM Ca2+): 13.1 µM | IC50 (-40 mV, 15 µM Ca2+): 15.6 µM | IC50 (-60 mV, 15 µM Ca2+): 18.6 µM | IC50 (-80 mV, 15 µM Ca2+): 22 µM | IC50 (-100 mV, 15 µM Ca2+): 25.7 µM | IC50 (-120 mV, 15 µM Ca2+): 30.4 µM | IC50 (-140 mV, 15 µM Ca2+): 34.9 µM | IC50 (V543A, V 0 mV): 11.2 µM | IC50 (V543A, V 20 mV): 9.55 µM | IC50 (V543A, V 40 mV): 8.65 µM | IC50 (V543A, V 60 mV): 8.16 µM | IC50 (V543A, V 80 mV): 8.02 µM | IC50 (V543A, V 100 mV): 8.37 µM | IC50 (V543A, V 120 mV): 8.93 µM | IC50 (V543A, V 140 mV): 9.55 µM | IC50 (V543A, V -20 mV): 13.1 µM | IC50 (V543A, V -40 mV): 15.6 µM | IC50 (V543A, V -60 mV): 18.6 µM | IC50 (V543A, V -80 mV): 22 µM | IC50 (V543A, V -100 mV): 25.7 µM | IC50 (V543A, V -120 mV): 30.4 µM | IC50 (V543A, V -140 mV): 34.9 µM
SMILES: N#Cc1c(C(F)(F)F)cc(O)n2c1nc1ccccc12 [1PBC]
